According to PMC10547880, “Synthesis and biological evaluation of novel 1,2,3-triazole hybrids of cabotegravir: identification of potent antitumor activity against lung cancer” (Frontiers in Pharmacology, 2023):

How the values were obtained:
Assay type in all cases: cell-based, Human
[1] = system: H460 cells; assay: CCK8 cell viability and IC50 measurement, H460; details: for Cell viability: H460, 25 μM; for IC50: H460, 72 h, CCK8; for cell proliferation inhibition rate: H460, 72-h treatment
Description: (§1) Human lung cancer cell line H460 and H1299, human liver normal cell line LO2 were bought from ATCC. DMEM or RPMI 1640 was used as the cell culture medium with 10% FBS and 1% penicillin/streptomycin. Cells were maintained in an incubator with 37°C humidified atmosphere and 5% CO2.
(§2) Cell viability and IC50 values were determined using the CCK8 assay kit. Cells were seeded at a density of 5 × 10^3 cells per well in a 96-well plate. After overnight adhesion, 25 μM of compounds or vehicle control DMSO which all dissolved in the culture medium were added to cells and cultured for 48 h or 72 h. CCK8 reagent, dissolved in the medium, was then added to cells and incubated for 1 h. The absorbance at 450 nm was measured using a microplate spectrophotometer (Thermo). Cell viability was calculated, with the untreated group taken as 100%. For IC50 values determination, different concentrations (0, 0.4 μM, 2 μM, 10 μM, 20 μM, 50 μM) of compounds were added to cells for 72 h. Subsequent CCK8 measurement allowed the calculation of inhibition percentage based on cell viability. The IC50 values were computed by the prism statistical software. The CCK-8 assay was conducted three times and the repetitions in each time were at least three. All the values were expressed as Mean ± SD, p < 0.05 was considered statistically significant.
(§3) In order to assess the potential cytotoxicity of the synthesized compounds, we selected two types of human non-small-cell lung cancer cell line, H460 and H1299. Cell viability and cytotoxicity were evaluated using the CCK8 assay ([Xu et al., 2018]). The cells were treated with 25 μM of compounds 5a-5s and 6a-6i for 48h and 72 h. […] In contrast, no compounds managed to reduce H1299 cell viability to less than 50%, yet compounds 5i, 5m, 6h and 6i achieved cell viability rates below 70%. […] It is worth noting that minimal effects on the cell viability of the normal cell line LO2 were observed when exposed to these compounds. Further, we determined the half-maximal inhibitory concentration (IC50) of selected compounds against H460 cells, the results of which were summarized in Table 3.

[2] = system: H1299 cells; assay: CCK8 cell viability, H1299; details: H1299, 25 μM
Description: as §1, §2, §3

[3] = system: LO2 cells; assay: CCK8 cell viability, normal cell line LO2; details: LO2 normal liver cells, 25 μM, 72 h
Description: as §1, §2, §3

| IC50 [1] | SMILES | Cell viability ([1]; 48 h) | Cell viability ([1]; 72 h) | Cell viability ([2]; 48 h) | Cell viability ([2]; 72 h) | Cell viability [3] | cell proliferation inhibition rate [1] |
| --- | --- | --- | --- | --- | --- | --- | --- |
| – | COc1c2n(cc(C(=O)Nc3cccc(-c4cn(-c5ccccc5)nn4)c3)c1=O)CC1OCC(C)N1C2=O (centres unmarked) [Compound 5p] | 88.36% | 104.18% | 114.26% | 87.16% | 109.72% | – |
| > 100 µM | COc1c2n(cc(C(=O)Nc3cccc(-c4cn(-c5cccc(Cl)c5)nn4)c3)c1=O)CC1OCC(C)N1C2=O (centres unmarked) [Compound 5q] | 99.40% | 104.14% | 107.23% | 88.40% | 125.35% | – |
| – | COc1c2n(cc(C(=O)Nc3cccc(-c4cn(-c5cccc(Br)c5)nn4)c3)c1=O)CC1OCC(C)N1C2=O (centres unmarked) [Compound 5r] | 99.03% | 107.13% | 117.54% | 89.82% | 127.81% | – |
| 13.4 ± 4.54 µM | COc1c2n(cc(C(=O)Nc3cccc(-c4cn(-c5ccccc5Cl)nn4)c3)c1=O)CC1OCC(C)N1C2=O (centres unmarked) [Compound 5s] | 71.73% | – | 127.14% | 97.37% | 122.75% | exceed 50% |
| > 50 µM | COc1c2n(cc(C(=O)Nc3cccc(-c4cn(Cc5ccccc5)nn4)c3)c1=O)CC1OCC(C)N1C2=O (centres unmarked) [Compound 6a] | 99.81% | 118.33% | 118.73% | 101.39% | 127.44% | – |
| 30.5 ± 2.18 µM | COc1c2n(cc(C(=O)Nc3cccc(-c4cn(Cc5ccccc5Br)nn4)c3)c1=O)CC1OCC(C)N1C2=O (centres unmarked) [Compound 6b] | 51.88% | – | 104.60% | 101.92% | 126.52% | exceed 50% |
| – | COc1c2n(cc(C(=O)Nc3cccc(-c4cn(Cc5ccccc5C)nn4)c3)c1=O)CC1OCC(C)N1C2=O (centres unmarked) [Compound 6c] | 105.51% | 101.80% | 110.58% | 97.63% | 103.41% | – |
| – | COc1c2n(cc(C(=O)Nc3cccc(-c4cn(Cc5ccc(C(F)(F)F)cc5)nn4)c3)c1=O)CC1OCC(C)N1C2=O (centres unmarked) [Compound 6d] | 113.95% | 105.14% | 113.99% | 93.95% | 104.58% | – |
| 22.88 ± 0.13 µM | COc1c2n(cc(C(=O)Nc3cccc(-c4cn(Cc5ccccc5C(F)(F)F)nn4)c3)c1=O)CC1OCC(C)N1C2=O (centres unmarked) [Compound 6e] | 77.85% | 60.74% | 127.00% | 92.15% | 127.55% | – |
| – | COc1c2n(cc(C(=O)Nc3cccc(-c4cn(Cc5ccc(Cl)cc5)nn4)c3)c1=O)CC1OCC(C)N1C2=O (centres unmarked) [Compound 6f] | 91.99% | 94.49% | 104.20% | 96.47% | 130.96% | – |
| – | COc1cccc(Cn2cc(-c3cccc(NC(=O)c4cn5c(c(OC)c4=O)C(=O)N4C(C)COC4C5)c3)nn2)c1 (centres unmarked) [Compound 6g] | 93.36% | 95.01% | 91.06% | 94.37% | 130.54% | – |
| 15.86 ± 0.09 µM | COc1c2n(cc(C(=O)Nc3cccc(-c4cn(Cc5ccccc5Cl)nn4)c3)c1=O)CC1OCC(C)N1C2=O (centres unmarked) [Compound 6h] | – | – | 126.87% | – | 88.86% | exceed 50% |
| – | COc1c2n(cc(C(=O)Nc3cccc(-c4cn(Cc5cccc(F)c5)nn4)c3)c1=O)CC1OCC(C)N1C2=O (centres unmarked) [Compound 6i] | 97.90% | 95.51% | 99.47% | – | 127.14% | – |
